Patent publication US20100130444A1, “COMPLEXES OF PROSTAGLANDIN DERIVATIVES AND MONOSUBSTITUTED, CHARGED BETA-CYCLODEXTRINS” (priority 2007, published 2010)
≈ marks a conversion by molar mass, not a printed value.

Key:
Assay type in all cases: physicochemical
[1] = Solubilization of latanoprost by a library of cyclodextrin derivatives (Example 1); conditions: ultra-pure water, room temperature
Method: A library of unsubstituted and monosubstituted cyclodextrins was screened to identify those cyclodextrin derivatives that have the highest capacity for solubilization of latanoprost. Complexation was carried out in ultra-pure water at a molar ratio of cyclodextrin derivative to latanoprost of 5:1, corresponding to concentrations of 115.58 mM and 23.12 mM for cyclodextrin derivative and latanoprost, respectively. Because of the known sensitivity of latanoprost to light, high temperature and oxidation, experiments were conducted in the dark and under a nitrogen atmosphere at room temperature. […] Non-covalent complexes formed contained the cyclodextrin derivative and latanoprost at a molar ratio of 5:1.

[2] = Solubility of prostaglandin derivatives in 50 mM cyclodextrin derivative or water (Example 2)
Source text: Solubility of Latanoprost, Bimatoprost And Travoprost in 50 Mm Mono-6-desoxy-6-diaminopropyl-β-cyclodextrin, Mono-6-desoxy-6-aminopropanol-β-cyclodextrin or Water

[3] = 30-day stability of latanoprost complexed with mono-6-desoxy-6-aminopropanol-β-cyclodextrin, quantitative HPLC (Example 6, Table 5); conditions: for Degradation products of latanoprost at 30 days (% of sum of drug and deg. prod.): uncomplexed aqueous solution
Method: Analogous experiments were carried out to estimate the stability of latanoprost-mono-6-desoxy-6-aminopropanol-β-cyclodextrin complex.

[4] = Time to reach maximal solubility of latanoprost in cyclodextrin solution (Example 3); conditions: 115 mM mono-6-desoxy-6-diaminopropyl-β-cyclodextrin, room temperature, dark, stirred
Method: The minimal time period required for reaching maximal solubility of the guest molecule, i.e., latanoprost, in a solution containing 115 mM mono-6-desoxy-6-diaminopropyl-β-cyclodextrin was determined. Subsequent to addition of latanoprost, the resulting suspension was ultrasonicated for 5 min and then stirred magnetically at room temperature and in the dark for a period of 48 hours. Aliquots were removed at 0, 1, 3, 6, 12, 24 and 48 hours. Each aliquot was filtered through a 0.45 um PVDF (Millipore/Whatman) membrane, and the filtrate was diluted for quantitative analysis of latanoprost by HPLC. […] Subsequent experiments were conducted after 24 hours of equilibration.

[5] = 30-day stability of latanoprost complexed with mono-6-desoxy-6-diaminopropyl-β-cyclodextrin, HPLC-ELSD (Example 6, Table 4); conditions: for Relative area of Latanoprost (%) after 30 days: ELSD
Method: Latanoprost-mono-6-desoxy-6-diaminopropyl-β-cyclodextrin complex was prepared essentially as described under the previous example. Complex was dissolved in water to yield solutions (pH 6.7) containing 15 mg/ml and 7.5 mg/ml of latanoprost, respectively, or in a standard, isotonic phosphate buffer (pH 6.7) at 50 μg/ml. A control solution of 50 μg/ml latanoprost in phosphate buffer was also prepared. One-milliliter amounts of these solutions were transferred to pre-scored hermetically thermo-sealed ampoules, and the sealed ampoules were incubated at room temperature, at 37° C. or at 60° C., in the presence or absence of natural light, for a total of 30 days. Aliquots were removed periodically and were analyzed by HPLC using either a UV diode array detector (at 210 nm) or an evaporative light scattering detector (ELSD). […] Such instability had been observed previously. Morgan (2001) J. Glaucoma 10, 401-405; Yusuke Sakai (2005) Int. J. Pharmaceutics 305, 176-179. International patent publication WO 2004/024164.

[6] = dark, nitrogen, cyclodextrin derivative 115.58 mM : latanoprost 23.12 mM (5:1), 'No addition' = latanoprost alone (Exp. S0)
[7] = 50 mM mono-6-desoxy-6-aminopropanol-β-cyclodextrin solution, aqueous with cosolvent or surfactant or cyclodextrin, read-out: Solubility In 50 mM Mono-6-desoxy-6-aminopropanol-β-cyclodextrin
[8] = 50 mM mono-6-desoxy-6-diaminopropyl-β-cyclodextrin solution, aqueous with cosolvent or surfactant or cyclodextrin, read-out: Solubility In 50 mM Mono-6-desoxy-6-diaminopropyl-β-cyclodextrin
[9] = water, read-out: Solubility In Water

Q: Which “Mass Ratio Cyclodextrin:Latanoprost in Complex” value [1] does the source give for “3^1,6^1-anhydrocyclomaltoheptaose [Monoanhydro-β-cyclodextrin]” here?
A: 65

Q: What about the “Molar Ratio Cyclodextrin:Latanoprost in Complex” value [1] of the same compound?
A: 25

Q: What about the “Maximal Solubility of Latanoprost” value [1, 6] of the same compound?
A: 2000 µg/mL

Q: Which “Mass Ratio Cyclodextrin:Latanoprost in Complex” value [1] does the source give for “6^1-(3-amino-propylamino)-6^1-deoxycyclomaltoheptaose” here?
A: 14

Q: And the “Molar Ratio Cyclodextrin:Latanoprost in Complex” value [1]?
A: 5

Q: And the “Maximal Solubility of Latanoprost” value [1, 6]?
A: 9570 µg/mL

Q: With “6^1-(3-hydroxy-propylamino)-6^1-deoxycyclomaltoheptaose” as the compound, how does the “Mass Ratio Cyclodextrin:Latanoprost in Complex” value [1] read?
A: 14

Q: And the “Molar Ratio Cyclodextrin:Latanoprost in Complex” value [1]?
A: 5

Q: And the “Maximal Solubility of Latanoprost” value [1, 6]?
A: 10200 µg/mL

Q: Which results are given for “6^1-(methylthioureido-6^1-deoxycyclomaltoheptaose”?
A: Mass Ratio Cyclodextrin:Latanoprost in Complex [1]: 106; Molar Ratio Cyclodextrin:Latanoprost in Complex [1]: 38; Maximal Solubility of Latanoprost [1, 6]: 1300 µg/mL

Q: What does the source list for `CCNC(=O)CCC/C=C\C[C@@H]1[C@@H](/C=C/[C@@H](O)CCc2ccccc2)[C@H](O)C[C@@H]1O` [Bimatoprost, 17-phenyl-18,19,20-trinor-PGF2α-ethylamide]?
A: solubility [2, 7]: 10770 ± 50 µg/mL (≈ 25.9 mM); solubility [2, 8]: 10700 ± 670 µg/mL (≈ 25.7 mM); solubility [2, 9]: 3020 µg/mL (≈ 7.26 mM)

Q: What does the source list for `CC(C)OC(=O)CCC/C=C\C[C@@H]1C(CC[C@@H](O)CCc2ccccc2)[C@H](O)C[C@@H]1O` (stereo partly drawn) [Latanoprost, 13,14-dihydro-17-phenyl-18,19,20-trinor-PGF2α-isopropylester]?
A: degradation at 25° C. (in words) ([3]; 25° C., 30 days): abundant degradation; Degradation products of latanoprost at 30 days (% of sum of drug and deg. prod.) ([3]; 25 °C, Dark): 93.4%; Degradation products of latanoprost at 30 days (% of sum of drug and deg. prod.) ([3]; 25 °C, Light): 77.9%; Degradation products of latanoprost at 30 days (% of sum of drug and deg. prod.) ([3]; 37 °C, Dark): 0%; Degradation products of latanoprost at 30 days (% of sum of drug and deg. prod.) ([3]; 37 °C, Light): 0%; Degradation products of latanoprost at 30 days (% of sum of drug and deg. prod.) ([3]; 60 °C, Dark): 0%; Degradation products of latanoprost at 30 days (% of sum of drug and deg. prod.) ([3]; 60 °C, Light): 0%; latanoprost in aqueous solution at 30 days ([3]; uncomplexed, 25 °C, Dark): 0.002 +/− 0.001 g/lt; latanoprost in aqueous solution at 30 days ([3]; uncomplexed, 25 °C, Light): 0.006 +/− 0.004 g/lt; latanoprost in aqueous solution at 30 days ([3]; uncomplexed, 37 °C, Dark): 0.051 +/− 0.001 g/lt; latanoprost in aqueous solution at 30 days ([3]; uncomplexed, 37 °C, Light): 0.061 +/− 0.003 g/lt; latanoprost in aqueous solution at 30 days ([3]; uncomplexed, 60 °C, Dark): 0.058 +/− 0.002 g/lt; latanoprost in aqueous solution at 30 days ([3]; uncomplexed, 60 °C, Light): 0.043 +/− 0.007 g/lt; latanoprost in aqueous solution at day 0 ([3]; uncomplexed, phosphate-citrate buffer pH 5.0): 0.063 +/− 0.003 g/lt; time at which solubility equilibrium was reached [4]: about 24 hours; solubility ([1]; dark, nitrogen, cyclodextrin derivative 115.58 mM : latanoprost 23.12 mM (5:1), 'No addition' = latanoprost alone (Exp. S0), read-out: Maximal Solubility of Latanoprost): 45 µg/mL (≈ 0.104 mM); solubility [2, 7]: 5720 ± 80 µg/mL (≈ 13.2 mM); solubility [2, 8]: 5900 ± 60 µg/mL (≈ 13.6 mM); solubility [2, 9]: 89 µg/mL (≈ 0.206 mM); Relative area of Latanoprost (%) after 30 days ([5]; 25 °C, Dark): 85.9%; Relative area of Latanoprost (%) after 30 days ([5]; 25 °C, Light, intact latanoprost as % of sum of latanoprost and degradation product): 76.9%; Relative area of Latanoprost (%) after 30 days ([5]; 37 °C, Dark): 100%; Relative area of Latanoprost (%) after 30 days ([5]; 37 °C, Light): 99.8%; Relative area of Latanoprost (%) after 30 days ([5]; 60 °C, Dark): 98.5%; Relative area of Latanoprost (%) after 30 days ([5]; 60 °C, Light): 94.7%; stability over 30 days (in words) ([5]; room temperature, 37° C. or 60° C., light or dark, 30 days): exhibited instability, in particular at 25 °C

Q: Which results are given for `CC(C)OC(=O)CCC/C=C\C[C@@H]1[C@@H](/C=C/[C@@H](O)COc2cccc(C(F)(F)F)c2)[C@H](O)C[C@@H]1O` [Travoprost, 16-(3-trifluoromethylphenoxy)-17,18,19,20-tetranor-PGF2α-isopropylester]?
A: solubility [2, 7]: 4950 ± 20 µg/mL (≈ 9.89 mM); solubility [2, 8]: 4940 ± 130 µg/mL (≈ 9.87 mM); solubility [2, 9]: 32 µg/mL (≈ 0.0639 mM)

Q: For `OC[C@H]1O[C@@H]2O[C@H]3[C@H](O)[C@@H](O)[C@@H](O[C@H]4[C@H](O)[C@@H](O)[C@@H](O[C@H]5[C@H](O)[C@@H](O)[C@@H](O[C@H]6[C@H](O)[C@@H](O)[C@@H](O[C@H]7[C@H](O)[C@@H](O)[C@@H](O[C@H]8[C@H](O)[C@@H](O)[C@@H](O[C@H]1[C@H](O)[C@H]2O)O[C@@H]8CO)O[C@@H]7CO)O[C@@H]6CO)O[C@@H]5CO)O[C@@H]4CO)O[C@@H]3CO` [β-Cyclodextrin, β-cyclomaltoheptaose], which “Mass Ratio Cyclodextrin:Latanoprost in Complex” value [1] is on record?
A: 59

Q: What about the “Maximal Solubility of Latanoprost” value [1, 6] of the same compound?
A: 255 µg/mL
